Results taken from US20090054509A1, “Octahydropentalene-Substituted Pyrazoline Derivatives, Their Prepartion and Use as Medicaments” (LABORATORIOS DEL DR. ESTEVE, S.A., priority 2005, published 2009).

How the values were obtained:
[1] = biological target: T1, recombinant human cannabinoid 1 receptor (CB1) (Homo sapiens, UniProt P21554); experiment: [35S]GTPγS binding assay, antagonism against WIN 55,212-2; assay type: biochemical; conditions: compound at 1 μM against WIN 55,212-2 dose response, CHO-hCB1 membranes, 100% = effect of internal standard CB1-antagonist
T1 construct: expressed in transfected cells; membranes prepared
T1 sequence (P21554 whole entry): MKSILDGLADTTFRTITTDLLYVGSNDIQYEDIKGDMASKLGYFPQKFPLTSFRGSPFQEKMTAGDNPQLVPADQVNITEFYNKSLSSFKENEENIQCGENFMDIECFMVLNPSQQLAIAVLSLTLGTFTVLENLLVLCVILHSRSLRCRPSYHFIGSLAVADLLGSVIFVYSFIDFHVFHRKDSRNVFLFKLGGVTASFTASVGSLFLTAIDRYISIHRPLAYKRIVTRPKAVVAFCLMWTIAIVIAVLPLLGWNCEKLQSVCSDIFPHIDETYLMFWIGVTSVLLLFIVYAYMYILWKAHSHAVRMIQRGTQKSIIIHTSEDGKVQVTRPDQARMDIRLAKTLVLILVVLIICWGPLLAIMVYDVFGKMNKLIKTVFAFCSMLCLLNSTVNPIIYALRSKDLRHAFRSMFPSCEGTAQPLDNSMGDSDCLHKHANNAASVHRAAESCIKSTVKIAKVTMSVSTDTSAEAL
Protocol: Chinese hamster ovary (CHO) cells stably expressing recombinant human cannabinoid 1 receptor (CB1) were cultured in nutrient mixture Ham's F 12 supplemented with 10% heat-inactivated fetal bovine serum, 2 mM L-glutamine, 50 U/ml penicillin, 50 U/ml streptomycin and 0.5 mg/ml geneticin. In order to obtain cells, culture flasks were washed twice with phosphate buffered saline and scraped. Then, cells were collected by centrifugation (200×g, 10 min) and stored dry at −80° C. Cells were homogenized in ice-cold 20 mM HEPES, 10 mM EDTA (pH 7.5) and centrifuged at 40,000×g for 15 min at 4° C. The pellet was resuspended in 20 mM HEPES, 0.1 mM EDTA (pH 7.5) and centrifuged for 15 min at 4° C. The final pellet was resuspended in 20 mM HEPES, 0.1 mM EDTA (pH 7.5), and divided in aliquots and stored at −80° C. until use.
The reaction was performed in 96-well plates. Membranes (15 µg protein/well) were incubated for 60 min at 30° C. in buffer (50 mM HEPES, 100 mM KCl, 5 mM MgCl2, 1 mM EDTA, 0.1% wt/vol bovine serum albumin, 5 μM GDP, saponin (10 μg/ml), 0.5 nM [^35S]GTPγS, pH 7.4) with compound at 1 μM final concentration in either the absence or presence of dose response curve of agonist WIN 55, 212-2 between 3 nM and 3 μM. The incubation was terminated by rapid filtration through Millipore Multiscreen glass fiber FB, and rinsed two-times with ice-cold assay buffer. Filter plates were dried and 30 μl of scintillation liquid was added. Radioactivity was determined using Wallac Microbeta Trilux. Each experiment was performed at least in duplicate. A WIN 55, 212-2 dose-response was systematically performed.
The average of basal [^35S]GTPγS binding was subtracted from all binding data. In order to compare the antagonism results from one screening campaign to another one, the difference between the maximal agonist effect of WIN 55, 212-2 alone, and the maximal antagonism effect due to WIN 55, 212-2 with an internal standard CB1-antagonist was defined as 100%.

[2] = In vivo testing for antiobesic activity, acute treatment; conditions: rats, acute oral administration; body weight difference versus control
Protocol: Normally handled rats were habituated to a reversed cycle 12/12 h, and the compound as well as saline was acutely orally administered. After administration the cumulated food intake (g) was measured at 6 h and 23 h. Following that the difference in body weight between control and compound treated animals was measured.

Antagonism (%) ([1]; hydrochloride) | Compound | Antagonism (%) [1] | reduction of body weight [2]
– | COc1ccc([C@H]2[C@@H](C)C(C(=O)NN3CC4CCCC4C3)=NN2c2ccc(Cl)cc2Cl)cc1.Cl (relative stereo) [Example 7, cis-1-(2,4-dichlorophenyl)-N-(hexahydrocyclopenta[c]pyrrol-2(1H)-yl)-5-(4-methoxyphenyl)-4-methyl-4,5-dihydro-1H-pyrazole-3-carboxamide hydrochloride] | 148% | –
112 ± 0% | C[C@H]1C(C(=O)NN2CC3CCCC3C2)=NN(c2ccc(Cl)cc2Cl)[C@H]1c1ccc(Cl)cc1.Cl (single isomer, unassigned) [Example 1, cis-5-(4-chlorophenyl)-1-(2,4-dichlorophenyl)-N-(hexahydrocyclopenta-[c]pyrrol-2(1H)-yl)-4-methyl-4,5-dihydro-1H-pyrazole-3-carboxamide hydrochloride] | – | good activity
– | C[C@H]1C(C(=O)NN2CC3CCCC3C2)=NN(c2ccc(Cl)cc2Cl)[C@H]1c1ccc(Br)cc1.Cl (relative stereo) [Example 3, cis-5-(4-bromophenyl)-1-(2,4-dichlorophenyl)-N-(hexahydrocyclopenta-[c]pyrrol-2(1H)-yl)-4-methyl-4,5-dihydro-1H-pyrazole-3-carboxamide hydrochloride] | 99 ± 2% | –
– | C[C@H]1C(C(=O)NN2CC3CCCC3C2)=NN(c2ccc(Cl)cc2Cl)[C@H]1c1ccc(F)cc1.Cl (relative stereo) [Example 5, cis-1-(2,4-dichlorophenyl)-5-(4-fluorophenyl)-N-(hexahydrocyclopenta-[c]pyrrol-2(1H)-yl)-4-methyl-4,5-dihydro-1H-pyrazole-3-carboxamide hydrochloride] | 108 ± 13% | –
102 ± 7% | C[C@H]1C(C(=O)NN2CC3CCCC3C2)=NN(c2ccc(Cl)cc2Cl)[C@H]1c1ccc(Cl)cc1.Cl (single isomer, unassigned) [1 (HCl), cis-5-(4-chlorophenyl)-1-(2,4-dichlorophenyl)-N-(hexahydrocyclopenta-[c]pyrrol-2(1H)-yl)-4-methyl-4,5-dihydro-1H-pyrazole-3-carboxamide hydrochloride] | – | –
